In the supplement of paper PMC10307832:

Key:
Assay in all cases: relative viability (nuclei count vs DMSO), 5 days (fraction); higher = more cells survive
[1] = tested on: HCC-827
Procedure, shortened: (§1)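 Values are medians from duplicate plates. Each reflects relative viability, defined as the nuclei count of treated wells over that of vehicle wells. Lung cancer cell lines in 1536-well plates were pin-tool dosed one day after seeding with one drug alone or with a fixed anchor-drug dose plus five library-drug doses (not always all listed) in √10 steps, then fixed, stained and imaged at 4× after 5 days.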

[2] = tested on: EPLC-272H
Procedure, shortened: as §1

[3] = tested on: 201T
Procedure, shortened: as §1

[4] = tested on: PC-14
Procedure, shortened: as §1

[5] = tested on: NCI-H647
Procedure, shortened: as §1

[6] = tested on: COR-L 105
Procedure, shortened: as §1

[7] = tested on: LC-2-ad
Procedure, shortened: as §1

[8] = tested on: NCI-H2405
Procedure, shortened: as §1

[9] = tested on: NCI-H661
Procedure, shortened: as §1

[10] = tested on: LCLC-97TM1
Procedure, shortened: as §1

[11] = tested on: ChaGo-K-1
Procedure, shortened: as §1

[12] = tested on: NCI-H1666
Procedure, shortened: as §1

[13] = tested on: HCC-78
Procedure, shortened: as §1

[14] = tested on: NCI-H2126
Procedure, shortened: as §1

[15] = tested on: RERF-LC-KJ
Procedure, shortened: as §1

[16] = tested on: NCI-H23
Procedure, shortened: as §1

[17] = tested on: NCI-H650
Procedure, shortened: as §1

[18] = tested on: NCI-H1915
Procedure, shortened: as §1

[19] = tested on: NCI-H2347
Procedure, shortened: as §1

[20] = tested on: NCI-H2087
Procedure, shortened: as §1

[21] = tested on: H3255
Procedure, shortened: as §1

[22] = tested on: NCI-H520
Procedure, shortened: as §1

For `Cc1sc2c(c1C)C(c1ccc(Cl)cc1)=N[C@@H](CC(=O)OC(C)(C)C)c1nnc(C)n1-2` [JQ1] + COc1cc2c(Oc3ccc(NC(=O)C4(C(=O)Nc5ccc(F)cc5)CC4)cc3F)ccnc2cc1OCCCN1CCOCC1 [Foretinib] (partner 0.25 µM), the relative viability ([1]; first compound 0.04 µM) was 1.1, the relative viability ([1]; first compound 0.4 µM) was 1.14 and the relative viability ([1]; first compound 1.265 µM) was 1.22. For the same molecule, the relative viability ([1]; first compound 4 µM) was 0.907, the relative viability ([2]; first compound 0.04 µM) was 0.639 and the relative viability ([2]; first compound 0.1265 µM) was 0.508. For the same molecule, the relative viability ([2]; first compound 0.4 µM) was 0.454, the relative viability ([2]; first compound 1.265 µM) was 0.247 and the relative viability ([2]; first compound 4 µM) was 0.191. For the same molecule, the relative viability ([3]; first compound 0.04 µM) was 1.02, the relative viability ([3]; first compound 0.1265 µM) was 0.704 and the relative viability ([3]; first compound 0.4 µM) was 0.514. The relative viability ([3]; first compound 1.265 µM) was 0.343, the relative viability ([3]; first compound 4 µM) was 0.215 and the relative viability ([4]; first compound 0.04 µM) was 0.906. It also gave a relative viability ([4]; first compound 0.1265 µM) of 0.645, a relative viability ([4]; first compound 0.4 µM) of 0.625 and a relative viability ([4]; first compound 1.265 µM) of 0.582. It also gave a relative viability ([4]; first compound 4 µM) of 0.477, a relative viability ([5]; first compound 0.04 µM) of 1.21 and a relative viability ([5]; first compound 0.1265 µM) of 0.914. It also gave a relative viability ([5]; first compound 0.4 µM) of 0.841, a relative viability ([5]; first compound 1.265 µM) of 0.242 and a relative viability ([5]; first compound 4 µM) of 0.204. The relative viability ([6]; first compound 0.04 µM) was 0.794, the relative viability ([6]; first compound 0.1265 µM) was 0.604 and the relative viability ([6]; first compound 0.4 µM) was 0.656. It also gave a relative viability ([6]; first compound 1.265 µM) of 0.219, a relative viability ([6]; first compound 4 µM) of 0.272 and a relative viability ([7]; first compound 0.04 µM) of 0.809. The relative viability ([7]; first compound 0.1265 µM) was 0.625, the relative viability ([7]; first compound 0.4 µM) was 0.538 and the relative viability ([7]; first compound 1.265 µM) was 0.359. It also gave a relative viability ([7]; first compound 4 µM) of 0.266, a relative viability ([8]; first compound 0.04 µM) of 1.08 and a relative viability ([8]; first compound 0.1265 µM) of 1.02. The relative viability ([8]; first compound 0.4 µM) was 1.03, the relative viability ([8]; first compound 1.265 µM) was 0.835 and the relative viability ([8]; first compound 4 µM) was 0.744. The relative viability ([9]; first compound 0.04 µM) was 1.04, the relative viability ([9]; first compound 0.1265 µM) was 0.945 and the relative viability ([9]; first compound 0.4 µM) was 1.03. The relative viability ([9]; first compound 1.265 µM) was 0.7, the relative viability ([9]; first compound 4 µM) was 0.668 and the relative viability ([10]; first compound 0.04 µM) was 0.909. For the same molecule, the relative viability ([10]; first compound 0.1265 µM) was 0.949, the relative viability ([10]; first compound 0.4 µM) was 0.823 and the relative viability ([10]; first compound 1.265 µM) was 0.617. For the same molecule, the relative viability ([10]; first compound 4 µM) was 0.4, the relative viability ([11]; first compound 0.04 µM) was 0.95 and the relative viability ([11]; first compound 0.1265 µM) was 0.827. It also gave a relative viability ([11]; first compound 0.4 µM) of 0.929, a relative viability ([11]; first compound 1.265 µM) of 0.7 and a relative viability ([11]; first compound 4 µM) of 0.583. For the same molecule, the relative viability ([12]; first compound 0.04 µM) was 0.855, the relative viability ([12]; first compound 0.1265 µM) was 0.924 and the relative viability ([12]; first compound 0.4 µM) was 0.818. It also gave a relative viability ([12]; first compound 1.265 µM) of 0.634, a relative viability ([12]; first compound 4 µM) of 0.653 and a relative viability ([13]; first compound 0.04 µM) of 0.557. For the same molecule, the relative viability ([13]; first compound 0.1265 µM) was 0.506, the relative viability ([13]; first compound 0.4 µM) was 0.495 and the relative viability ([13]; first compound 1.265 µM) was 0.509. For the same molecule, the relative viability ([13]; first compound 4 µM) was 0.453, the relative viability ([14]; first compound 0.04 µM) was 1.22 and the relative viability ([14]; first compound 0.1265 µM) was 1.15. For the same molecule, the relative viability ([14]; first compound 0.4 µM) was 1.03, the relative viability ([14]; first compound 1.265 µM) was 0.655 and the relative viability ([14]; first compound 4 µM) was 0.693. For the same molecule, the relative viability ([15]; first compound 0.04 µM) was 0.939, the relative viability ([15]; first compound 0.1265 µM) was 0.88 and the relative viability ([15]; first compound 0.4 µM) was 0.942. The relative viability ([15]; first compound 1.265 µM) was 0.748, the relative viability ([15]; first compound 4 µM) was 0.555 and the relative viability ([16]; first compound 0.04 µM) was 0.986. It also gave a relative viability ([16]; first compound 0.1265 µM) of 0.772, a relative viability ([16]; first compound 0.4 µM) of 0.546 and a relative viability ([16]; first compound 1.265 µM) of 0.558. For the same molecule, the relative viability ([16]; first compound 4 µM) was 0.297, the relative viability ([17]; first compound 0.04 µM) was 0.996 and the relative viability ([17]; first compound 0.1265 µM) was 0.717. It also gave a relative viability ([17]; first compound 0.4 µM) of 0.687, a relative viability ([17]; first compound 1.265 µM) of 0.385 and a relative viability ([17]; first compound 4 µM) of 0.294. The relative viability ([18]; first compound 0.04 µM) was 1.09, the relative viability ([18]; first compound 0.1265 µM) was 1.03 and the relative viability ([18]; first compound 0.4 µM) was 0.732. The relative viability ([18]; first compound 1.265 µM) was 0.653, the relative viability ([18]; first compound 4 µM) was 0.449 and the relative viability ([19]; first compound 0.04 µM) was 1.04. For the same molecule, the relative viability ([19]; first compound 0.1265 µM) was 1.15, the relative viability ([19]; first compound 0.4 µM) was 1.02 and the relative viability ([19]; first compound 1.265 µM) was 0.842. The relative viability ([19]; first compound 4 µM) was 0.393, the relative viability ([20]; first compound 0.04 µM) was 1.06 and the relative viability ([20]; first compound 0.1265 µM) was 0.997. For the same molecule, the relative viability ([20]; first compound 0.4 µM) was 0.766, the relative viability ([20]; first compound 1.265 µM) was 0.518 and the relative viability ([20]; first compound 4 µM) was 0.479. For the same molecule, the relative viability ([21]; first compound 0.04 µM) was 0.78, the relative viability ([21]; first compound 0.1265 µM) was 0.884 and the relative viability ([21]; first compound 0.4 µM) was 0.987. The relative viability ([21]; first compound 1.265 µM) was 0.793, the relative viability ([21]; first compound 4 µM) was 0.442 and the relative viability ([22]; first compound 0.04 µM) was 0.732. For the same molecule, the relative viability ([22]; first compound 0.1265 µM) was 0.793, the relative viability ([22]; first compound 0.4 µM) was 0.81 and the relative viability ([22]; first compound 1.265 µM) was 0.35. The relative viability ([22]; first compound 4 µM) was 0.277.
